According to patent publication US6683095B2, “CDK inhibitors having 3-hydroxychromen-4-one structure” (LG Life Sciences Ltd., priority 2000, dated 2004):

Key:
CDK2/cyclin A = target: T1, CDK2/cyclin A (Homo sapiens, UniProt P24941); test: Inhibitory activity against CDK2 (CDK2/cyclin A kinase assay, GST-Rb substrate, 32P-ATP); type: biochemical; conditions: 100 μM ATP, 30° C., 30 minutes
T1 construct: His; made in house; host or cells: insect cell (baculovirus co-infection)
Method: The inhibitory activity against CDK2 was measured by referring to Kitagawa, M. et al., Oncogene 9; 2549, 1994 and that against CDK4 was measured by referring to Carlson, B. A. et al., Cancer Research 56; 2473, 1996.
The part of amino acid positions 780 to 928 of C-terminus of human Rb protein was isolated, N-terminus thereof was labelled with GST protein, large amount thereof was expressed in bacteria and purified to be used as the substrate for the enzyme.
(§1) The activities of CDK2/cyclin A and CDK4/cyclin D1 were determined as follows. About 100 ng of enzyme was reacted in a total 100 μl of 20 mM Tris(pH 8.0), 100 mM NaCl, 10 mM MgCl2 buffer solution containing 20 μg of GST-Rb protein, 100 μM of ATP and 5 μCi of p^32-γ-ATP at 30° C. for 30 minutes. Then, EDTA was added to a concentration of 20 mM to stop the enzyme reaction. Subsequently, 30 μl of 50% glutathione bead (purchased from Pharmacia) was added to attach GST-Rb to the bead, which was washed three times with 20 mM Tris(pH 8.0), 100 mM NaCl, 10 mM EDTA solution, and then scintillation counting was carried out. To analyze the inhibitory activity of the compound, the inhibitor having a proper concentration was added to the enzyme reaction solution, and then the enzyme activity was measured according to the above method.
The inhibitory activity against CDK2 and CDK4 of the compound of formula (1) according to the present invention was represented as IC50 value (see the following Table 1).

CDK4/cyclin D1 = target: T2, CDK4/cyclin D1 (Homo sapiens, UniProt P11802); test: Inhibitory activity against CDK4 (CDK4/cyclin D1 kinase assay, GST-Rb substrate, 32P-ATP); type: biochemical; conditions: 100 μM ATP, 30° C., 30 minutes
T2 construct: GST; made in house; host or cells: insect cell
T2 sequence (P11802 whole entry): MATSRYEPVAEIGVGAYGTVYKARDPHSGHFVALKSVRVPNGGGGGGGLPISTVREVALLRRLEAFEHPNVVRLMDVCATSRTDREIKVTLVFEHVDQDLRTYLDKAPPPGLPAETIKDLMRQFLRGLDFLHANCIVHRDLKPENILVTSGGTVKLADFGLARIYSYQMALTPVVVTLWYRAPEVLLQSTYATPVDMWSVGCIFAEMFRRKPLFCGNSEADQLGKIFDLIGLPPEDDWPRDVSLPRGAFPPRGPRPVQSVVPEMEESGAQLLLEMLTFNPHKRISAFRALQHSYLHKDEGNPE
T2 sequence (P24385 whole entry partner): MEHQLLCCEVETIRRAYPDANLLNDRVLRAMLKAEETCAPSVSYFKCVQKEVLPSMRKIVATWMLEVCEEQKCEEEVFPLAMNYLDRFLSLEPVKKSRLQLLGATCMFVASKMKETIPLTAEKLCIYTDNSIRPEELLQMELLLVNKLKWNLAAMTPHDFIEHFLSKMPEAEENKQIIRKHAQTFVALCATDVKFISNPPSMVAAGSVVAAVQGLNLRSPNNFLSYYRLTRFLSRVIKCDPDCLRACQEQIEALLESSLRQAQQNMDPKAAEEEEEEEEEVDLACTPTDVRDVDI
Method: as §1

| Structure (SMILES) | IC50 (CDK2/cyclin A) [µM] | IC50 (CDK4/cyclin D1) [µM] |
| --- | --- | --- |
| Cc1cc([N+](=O)[O-])c2oc(-c3ccc(O)c([N+](=O)[O-])c3)c(O)c(=O)c2c1 [Compound 2, 2-(4-hydroxy-3-nitrophenyl)-3-hydroxy-6-methyl-8-nitro-4H-chromen-4-one] | 4.5 | 7.7 |
| CC(=O)Nc1cc(C)cc2c(=O)c(O)c(-c3ccc(O)c([N+](=O)[O-])c3)oc12 [Compound 3, N-[2-(4-hydroxy-3-nitrophenyl)-3-hydroxy-6-methyl-4-oxo-4H-chromen-8-yl]acetamide] | 6 | 3.9 |
| Cc1cc(N)c2oc(-c3ccc(O)cc3)c(O)c(=O)c2c1 [Compound 4, 8-amino-2-(4-hydroxyphenyl)-3-hydroxy-6-methyl-4H-chromen-4-one] | 2.1 | 2.1 |
| CC(=O)Nc1cc(C)cc2c(=O)c(O)c(-c3ccc(O)c(NC(C)C)c3)oc12 [Compound 7A, N-{2-[4-hydroxy-3-(isopropylamino)phenyl]-3-hydroxy-6-methyl-4-oxo-4H-chromen-8-yl}acetamide] | 18 | 47 |
| CC(=O)Nc1cc(C)cc2c(=O)c(O)c(-c3ccc(O)c(N)c3)oc12 [Compound 7B, N-[2-(3-amino-4-hydroxyphenyl)-3-hydroxy-6-methyl-4-oxo-4H-chromen-8-yl]acetamide] | 3 | 17 |
| Cc1cc(NC(N)=O)c2oc(-c3ccc(O)c(NC(N)=O)c3)c(O)c(=O)c2c1 [Compound 10, N-{5-[8-(ureido)-3-hydroxy-6-methyl-4-oxo-4H-chromen-2-yl]-2-hydroxyphenyl}urea] | 30 | 100 |
| Cc1cc(N)c2oc(-c3ccc(N)cc3)c(O)c(=O)c2c1 [Compound 11, 8-amino-2-(4-aminophenyl)-3-hydroxy-6-methyl-4H-chromen-4-one] | 150 | 50 |
| Cc1cc(N2CCCS2(=O)=O)c2oc(-c3ccc(O)c(F)c3)c(O)c(=O)c2c1 [Compound 16, 2-[2-(3-fluoro-4-hydroxyphenyl)-3-hydroxy-6-methyl-4-oxo-4H-chromen-8-yl]-1λ^6-isothiazolidin-1,1-dione] | 0.45 | 1.1 |
| Cc1cc(N2CCCS2(=O)=O)c2oc(-c3ccc(O)c(Br)c3)c(O)c(=O)c2c1 [Compound 18, 2-[2-(3-bromo-4-hydroxyphenyl)-3-hydroxy-6-methyl-4-oxo-4H-chromen-8-yl]-1λ^6-isothiazolidin-1,1-dione] | 0.075 | 0.21 |
| Cc1cc(N2CCCS2(=O)=O)c2oc(-c3ccc(O)c(C#N)c3)c(O)c(=O)c2c1 [Compound 19, 5-[8-(1,1-dioxo-1λ^6-isothiazolidin-2-yl)-3-hydroxy-6-methyl-4-oxo-4H-chromen-2-yl]-2-hydroxybenzonitrile] | 1.4 | 0.79 |
| Cc1cc(N2CCCS2(=O)=O)c2oc(-c3ccc(F)c(Cl)c3)c(O)c(=O)c2c1 [Compound 21, 2-[2-(3-chloro-4-fluorophenyl)-3-hydroxy-6-methyl-4-oxo-4H-chromen-8-yl]-1λ^6-isothiazolidin-1,1-dione] | 13 | 24 |
| Cc1cc(N2CCCS2(=O)=O)c2oc(-c3ccc(O)c(CO)c3)c(O)c(=O)c2c1 [Compound 23, 2-{3-hydroxy-2-[4-hydroxy-3-(hydroxymethyl)phenyl]-6-methyl-4-oxo-4H-chromen-8-yl}-1λ^6-isothiazolidin-1,1-dione] | 1.5 | 5 |
| Cc1cc(N2CCCS2(=O)=O)c2oc(-c3ccc(O)c(C(F)(F)F)c3)c(O)c(=O)c2c1 [Compound 24, 2-[3-hydroxy-2-(4-hydroxy-3-trifluoromethylphenyl)-6-methyl-4-oxo-4H-chromen-8-yl]-1λ^6-isothiazolidin-1,1-dione] | 0.25 | 2.1 |
| CCN(CC)c1cc(N2CCCS2(=O)=O)c2oc(-c3ccc(O)cc3)c(O)c(=O)c2c1 [Compound 27, 2-[6-(diethylamino)-3-hydroxy-2-(4-hydroxyphenyl)-4-oxo-4H-chromen-8-yl]-1λ^6-isothiazolidin-1,1-dione] | 9 | 7.1 |
| O=c1c(O)c(-c2ccc(O)cc2)oc2c(N3CCCS3(=O)=O)cc(NCc3ccccc3)cc12 [Compound 28, 2-[6-(benzylamino)-3-hydroxy-2-(4-hydroxyphenyl)-4-oxo-4H-chromen-8-yl]-1λ^6-isothiazolidin-1,1-dione] | 2.24 | 3.2 |
| O=c1c(O)c(-c2ccc(O)cc2)oc2c(N3CCCS3(=O)=O)cc(NC3CCCCC3)cc12 [Compound 30, 2-[6-(cyclohexylamino)-3-hydroxy-2-(4-hydroxyphenyl)-4-oxo-4H-chromen-8-yl]-1λ^6-isothiazolidin-1,1-dione] | 5.6 | 1.6 |
| CNc1cc(N2CCCS2(=O)=O)c2oc(-c3ccc(O)cc3)c(O)c(=O)c2c1 [Compound 32, 2-[3-hydroxy-2-(4-hydroxyphenyl)-6-(methylamino)-4-oxo-4H-chromen-8-yl]-1λ^6-isothiazolidin-1,1-dione] | 0.224 | 0.54 |
| CN(CCO)c1cc(N2CCCS2(=O)=O)c2oc(-c3ccc(O)cc3)c(O)c(=O)c2c1 [Compound 33, 2-{3-hydroxy-6-[(2-hydroxyethyl)(methyl)amino]-2-(4-hydroxyphenyl)-4-oxo-4H-chromen-8-yl}-1λ^6-isothiazolidin-1,1-dione] | 0.6 | 0.9 |
| CC(=O)Nc1cc(N2CCCS2(=O)=O)c2oc(-c3ccc(O)c(Cl)c3)c(O)c(=O)c2c1 [Compound 34, N-[2-(3-chloro-4-hydroxyphenyl)-8-(1,1dioxo-1λ^6-isothiazolidin-2-yl)-3-hydroxy-4-oxo-4H-chromen-6-yl]acetamide] | 1.3 | 1.8 |

The next lines start with the values.

| IC50 (CDK2/cyclin A) [µM] | IC50 (CDK4/cyclin D1) [µM] | Structure (SMILES) |
| --- | --- | --- |
| 1.4 | 20 | Cc1cc(N)c2oc(-c3ccc(O)c(N)c3)c(O)c(=O)c2c1 [Compound 1, 8-amino-2-(3-amino-4-hydroxyphenyl)-3-hydroxy-6-methyl-4H-chromen-4-one] |
| 30 | 10 | CC(=O)Nc1cc(-c2oc3ccc(C)cc3c(=O)c2O)ccc1O [Compound 6, N-[2-hydroxy-5-(3-hydroxy-6-methyl-4-oxo-4H-chromen-2-yl)phenyl]acetamide] |
| 14 | 16 | Cc1cc(N)c2oc(-c3ccc(O)c(F)c3)c(O)c(=O)c2c1 [Compound 9, 8-amino-2-(3-fluoro-4-hydroxyphenyl)-3-hydroxy-6-methyl-4H-chromen-4-one] |
| 2 | 2.1 | Cc1cc(N)c2oc(-c3cccc(O)c3)c(O)c(=O)c2c1 [Compound 12, 8-amino-3-hydroxy-2-(3-hydroxyphenyl)-6-methyl-4H-chromen-4-one] |
| 1000 | 50 | Cc1ccc2oc(-c3ccc(O)c(O)c3O)c(O)c(=O)c2c1 [Compound 13, 3-hydroxy-6-methyl-2-(2,3,4-trihydroxyphenyl)-4H-chromen-4-one] |
| 500 | 11 | Cc1ccc2oc(-c3ccc(O)c(O)c3Br)c(O)c(=O)c2c1 [Compound 14, 2-(2-bromo-3,4-dihydroxyphenyl)-3-hydroxy-6-methyl-4H-chromen-4-one] |
| 1000 | 500 | Cc1cc(N2CCCS2(=O)=O)c2oc(-c3ccc(O)cc3O)c(O)c(=O)c2c1 [Compound 20, 2-[2-(2,4-dihydroxyphenyl)-3-hydroxy-6-methyl-4-oxo-4H-chromen-8-yl]-1λ^6-isothiazolidin-1,1-dione] |
| 0.7 | 2 | Cc1cc(N2CCCS2(=O)=O)c2oc(-c3ccc(O)c(C)c3)c(O)c(=O)c2c1 [Compound 22, 2-[3-hydroxy-2-(4-hydroxy-3-methylphenyl)-6-methyl-4-oxo-4H-chromen-8-yl]-1λ^6-isothiazolidin-1,1-dione] |
| 0.088 | 1.2 | Nc1cc(N2CCCS2(=O)=O)c2oc(-c3ccc(O)cc3)c(O)c(=O)c2c1 [Compound 25, 2-[6-amino-3-hydroxy-2-(4-hydroxyphenyl)-4-oxo-4H-chromen-8-yl]-1λ^6-isothiazolidin-1,1-dione] |
| 0.22 | 0.71 | CN(C)c1cc(N2CCCS2(=O)=O)c2oc(-c3ccc(O)cc3)c(O)c(=O)c2c1 [Compound 26, 2-[6-(dimethylamino)-3-hydroxy-2-(4-hydroxyphenyl)-4-oxo-4H-chromen-8-y]-1λ^6-isothiazolidin-1,1-dione] |
| 1.8 | 1.7 | O=c1c(O)c(-c2ccc(O)cc2)oc2c(N3CCCS3(=O)=O)cc(NC3CCNCC3)cc12 [Compound 29, 2-[3-hydroxy-2-(4-hydroxyphenyl)-4-oxo-6-(4-piperidinylamino)-4H-chromen-8-yl]-1λ^6-isothiazolidin-1,1-dione] |
| 1.4 | 3 | O=c1c(O)c(-c2ccc(O)cc2)oc2c(N3CCCS3(=O)=O)cc(Nc3ccccc3)cc12 [Compound 31, 2-[6-anilino-3-hydroxy-2-(4-hydroxyphenyl)-4-oxo-4H-chromen-8-yl]-1λ^6-isothiazolidin-1,1-dione] |
